Source: EPA's ToxValDB 9.5

Tested on: Rattus norvegicus
Settings: oral
[1] = short-term, duration: 28 days, gavage, F, Sprague-Dawley, Clinical Observation: Salivation1000 (transient) + Body Weight Changes: Weight gain decrease + Hematology: Hgb decrease, Hct decrease, RBC …
[2] = short-term, duration: 28 days, gavage, M, Sprague-Dawley, Clinical Observation: Salivation1000 (transient) + Body Weight Changes: Weight gain decrease + Hematology: Hgb decrease, Hct decrease, RBC …
[3] = short-term, duration: 28 days, gavage, F, Sprague-Dawley
[4] = short-term, duration: 28 days, gavage, M, Sprague-Dawley
[5] = short-term, duration: 28 days, gavage, F, Sprague-Dawley, Absolute Organ Weight: Liver increase, Ovary increase, Thyroid increase + Relative Organ Weight: Ovary increase, Thyroid increase + …
[6] = short-term, duration: 28 days, gavage, M, Sprague-Dawley, Absolute Organ Weight: Liver increase, Ovary increase, Thyroid increase + Relative Organ Weight: Ovary increase, Thyroid increase + …
[7] = short-term, duration: 28 days, gavage, M/F, Clinical Observation: Salivation Soft stool Mucous stool + Body Weight Changes: Weight gain decrease + Food Consumption: decrease + …
[8] = subchronic, duration: 90 days, gavage, M/F, Wistar, Clinical Observation: Salivation + Body Weight Changes: Weight gain decrease + Food Consumption: decrease + Urinalysis: Ket increase, …

Compound: CC(C)(C)OOC(C)(C)CCC(C)(C)OOC(C)(C)C [2,5-Dimethyl-2,5-di-(tert-butylperoxy)hexane]
- LOAEL [1]: 200 mg/kg-day
- LOEL [1]: 200 mg/kg-day
- NOAEL [1]: 40 mg/kg-day
- NOEL [1]: 40 mg/kg-day
- LOAEL [2]: 1000 mg/kg-day
- LOEL [2]: 200 mg/kg-day
- NOAEL [2]: 200 mg/kg-day
- NOEL [2]: 40 mg/kg-day

Compound: Cc1ccc(C)c(N)c1 [2,5-Dimethylaniline]
- NOEL (short-term, duration: 28 days, gavage, F, Sprague-Dawley, Clinical Observation: Staggering gait Lacrimation Salivation + Body Weight Changes: Body weight gain decrease + Food Consumption: decrease…): 12 mg/kg-day
- NOEL (short-term, duration: 28 days, gavage, M, Sprague-Dawley, Clinical Observation: Staggering gait Lacrimation Salivation + Body Weight Changes: Body weight gain decrease + Food Consumption: decrease…): < 12 mg/kg-day

Compound: Cc1cccc(C)c1N [2,6-Dimethylaniline]
- NOEL (subchronic, duration: 13 weeks, gavage, M/F, Fischer 344, Body Weight Changes: decrease + Hematology: WBC decrease, RBC decrease, Hgb decrease, Hct decrease, Lympho decrease + Blood Chemistry: K …): 20 mg/kg-day

Compound: CCCCOCCOCCO [2-(2-Butoxyethoxy)ethanol]
- NOAEL (chronic, duration: 91 days, drinking water, M/F, Fischer 344, Body Weight Changes: Terminal body weight decrease + Food Consumption: decrease + Water Consumption: decrease + Hematology: RBC decrease, …): 250 mg/kg-day

Compound: CCCOCCOCCO [2-(2-Propoxyethoxy)ethanol]
- NOAEL (subchronic, duration: 6 weeks, gavage, M, COBS, CD:BR, Clinical Observation: Narcosis(initial period only) + Body Weight Changes: Terminal body weight decrease + Food Consumption: decrease(day 3 …): 814 mg/kg-day

Compound: Cc1ccc(O)c(-n2nc3ccccc3n2)c1 [2-(2H-Benzotriazol-2-yl)-4-methylphenol]
- NOEL (subchronic, gavage, M, Sprague-Dawley, Urinalysis: Protein increase + Blood Chemistry: PL increase + Absolute Organ Weight: Liver increase + Relative Organ Weight: Liver increase…): < 30 mg/kg-day

Compound: Nc1cc(Cl)ccc1O [2-Amino-4-chlorophenol]
- NOEL (subchronic, gavage, M, Sprague-Dawley, Hematology: RBC decrease, Hgb decrease, MCHC decrease, Ret increase, Hct decrease + Absolute Organ Weight: Spleen increase + Relative Organ …): 50 mg/kg-day

Compound: O=C(O)c1ccccc1Cl [2-Chlorobenzoic acid]
- NOEL (subchronic, gavage, M, Sprague-Dawley, Clinical Observation: Salivation + Body Weight Changes: decrease + Food Consumption: decrease + Hematology: RBC decrease, Hgb decrease, RET …): 40 mg/kg-day

Compound: N#Cc1ccccc1Cl [2-Chlorobenzonitrile]
- NOEL (subchronic, gavage, M, Sprague-Dawley, Urinalysis: Ketone body increase + Hematology: APTT increase + Blood Chemistry: Cho increase, PL increase, ALT increasegamma-GTP increase, …): 10 mg/kg-day

Compound: CCCCC(CC)C(=O)OOC(C)(C)C1CCCCC1 (stereo not drawn) [2-Cyclohexylpropan-2-yl 2-ethylhexaneperoxoate]
- NOEL (short-term, duration: 28 days, gavage, M/F, Clinical Observation: Salivation + Blood Chemistry: GLUC decrease, TP increase, CRN decrease, BIL increase, T-CHO increase + Absolute Organ …): < 8 mg/kg-day

Compound: C=C(C)C(=O)NCCN1CCNC1=O [2-Methyl-N-[2-(2-oxoimidazolidin-1-yl)ethyl]prop-2-enamide]
- NOEL (short-term, duration: 28 days, gavage, M/F, Deaths + Clinical Observation: Salivation Abnormal breathing + Relative Organ Weight: Kidney increase + Necropsy: Stomach- Raised, limiting…): 200 mg/kg-day

Compound: Cc1ncc[nH]1 [2-Methylimidazole]
- NOEL (subchronic, diet, M/F, Fischer 344, Body Weight Changes: decrease + Food Consumption: decrease + Hematology: Plt increase, Hct decrease, Hgb decrease, RBC decrease, Ret …): < 60 mg/kg-day

Compound: OCCOc1ccccc1 [2-Phenoxyethanol]
- NOAEL (subchronic, duration: 90 days, gavage, M/F, Clinical Observation: Lack of grooming Lethargy Prostration + Body Weight Changes: decrease + Food Consumption: decrease + Water Consumption…): 80 mg/kg-day

Compound: Cc1cc(-c2ccc(N)c(C)c2)ccc1N.Cl.Cl [3,3'-Dimethylbenzidine dihydrochloride]
- NOEL (subchronic, duration: 13 weeks, drinking water, M/F, Fischer 344, Deaths + Clinical Observation: Crusty red exudate on the noses Thinness Stains on the fur + Body Weight Changes: decrease + Water …): < 45.6 mg/kg-day

Compound: COC(CC#N)OC [3,3-Dimethoxypropiononitrile]
- NOEL (short-term, duration: 28 days, gavage, M/F, Clinical Observation: Lethargy Salivation + Body Weight Changes: body weight gain decrease + Urinalysis: Urine volume increase, pH decrease…): < 15 mg/kg-day

Compound: O=C(Nc1ccccc1)c1cc2ccccc2cc1O [3-Hydroxy-2-naphthanilide]
- NOAEL [3]: 1000 mg/kg-day
- NOEL [3]: 1000 mg/kg-day
- NOAEL [4]: 1000 mg/kg-day
- NOEL [4]: 1000 mg/kg-day
- NOEL (subchronic, gavage, Sprague-Dawley): 1000 mg/kg-day

Compound: CCCC1CCC(C2CCC(=O)CC2)CC1 (stereo not drawn) [4'-Propyl[1,1'-bi(cyclohexane)]-4-one]
- NOEL (short-term, duration: 28 days, gavage, M/F, Clinical Observation: Salivation + Blood Chemistry: IP increase, CRN increase, GPT increase, BIL increase, TP increase, T-CHO increase, …): 8 mg/kg-day

Compound: CC(C)(C)c1cc(Cc2cc(C(C)(C)C)c(O)c(C(C)(C)C)c2)cc(C(C)(C)C)c1O [4,4'-Methylenebis(2,6-di-t-butylphenol)]
- LOEL [5]: 200 mg/kg-day
- NOEL [5]: 40 mg/kg-day
- LOEL [6]: 1000 mg/kg-day
- NOEL [6]: 200 mg/kg-day

Compound: CC(C)(c1ccc(O)cc1)c1cc(C(C)(C)c2ccc(O)cc2)c(O)cc1O [4,6-Bis[2-(4-hydroxyphenyl)propan-2-yl]benzene-1,3-diol]
- NOAEL [7]: 20 mg/kg-day
- NOEL [7]: < 5 mg/kg-day

Compound: Cl.Nc1ccc(Cl)cc1 [4-Chloroaniline hydrochloride]
- NOEL (subchronic, duration: 13 weeks, gavage, M/F, Fischer 344, Deaths + Body Weight Changes: decrease + Hematology: WBC increase, Lympho increase, Hct decrease, Hgb decrease, Methemoglobin increase, RBC …): < 5 mg/kg-day

Compound: O=Cc1ccc(Cl)cc1 [4-Chlorobenzaldehyde]
- NOEL (short-term, duration: 28 days, gavage, F, Sprague-Dawley, Clinical Observation: Salivation Tremor Soiled perigenital fur + Functional Observational Battery: Motor activity decrease + Body Weight …): 40 mg/kg-day
- NOEL (short-term, duration: 28 days, gavage, M, Sprague-Dawley, Clinical Observation: Salivation Tremor Soiled perigenital fur + Functional Observational Battery: Motor activity decrease + Body Weight …): 200 mg/kg-day

Compound: CCCCCCc1ccc(O)cc1O [4-Hexylresorcinol]
- NOEL (subchronic, duration: 13 weeks, gavage, M/F, Fischer 344, Deaths + Clinical Observation: Death + Body Weight Changes: decrease + Histopathology: Testis-Hypospermatogenesis Seminal vesicles-…): < 62.5 mg/kg-day

Compound: CC1(C)CC(O)CC(C)(C)N1[O] [4-Hydroxy-2,2,6,6-tetramethylpiperidin-1-yl)oxidanyl]
- NOEL (short-term, duration: 28 days, gavage, M/F, Clinical Observation: Salivation + Hematology: Trend of Anemia + Absolute Organ Weight: Spleen increase, Liver increase + Histopathology: …): 40 mg/kg-day

Compound: O=C(O)c1ccc([N+](=O)[O-])cc1 [4-Nitrobenzoic acid]
- NOEL (subchronic, duration: 13 weeks, diet, F, Fischer 344, Body Weight Changes: decrease + Hematology: Methemoglobin increase, Hct decrease, ,Hgb decrease, RBC decrease, Heinz body increase + Blood …): 40 mg/kg-day
- NOEL (subchronic, duration: 13 weeks, diet, M/F, Fischer 344, Body Weight Changes: decrease + Hematology: Methemoglobin increase, Hct decrease, ,Hgb decrease, RBC decrease, Heinz body increase + Blood …): < 60.5 mg/kg-day

Compound: O=[N+]([O-])c1ccc(CCl)cc1 [4-Nitrobenzyl chloride]
- NOEL (short-term, duration: 28 days, gavage, M/F, Sprague-Dawley, Clinical Observation: Salivation + Functional Observational Battery: Locomotor activity decrease + Food Consumption: decrease + Water …): < 8 mg/kg-day

Compound: C=CCOCCCCO [4-allyloxy-1-butanol]
- NOEL (short-term, duration: 28 days, gavage, M/F, Deaths + Clinical Observation: nasal discharge flatulence + Body Weight Changes: body weight gain decrease + Food Consumption: decrease + …): 10 mg/kg-day

Compound: CC(=O)CCC=C(C)C [6-Methyl-5-hepten-2-one]
- NOAEL [8]: 50 mg/kg-day
- NOEL [8]: < 50 mg/kg-day

Compound: COc1c2occc2cc2ccc(=O)oc12 [8-Methoxypsoralen]
- NOEL (subchronic, duration: 13 weeks, gavage, M/F, Fischer 344, Deaths + Clinical Observation: Rough hair coat Hunched appearance + Body Weight Changes: decrease + Absolute Organ Weight: Liver increase + …): < 25 mg/kg-day

Compound: CNC[C@H](O)c1cccc(O)c1.Cl [(-)-Phenylephrine hydrochloride]
- NOEL (subchronic, duration: 12 weeks, diet, M/F, Fischer 344, Deaths + Clinical Observation: Hyperexcitable + Body Weight Changes: decrease + Histopathology: Eye-Chronic keratitis Testis-Atrophy Seminal…): 240 mg/kg-day

Compound: C=CC(=O)OCc1c(Br)c(Br)c(Br)c(Br)c1Br [(Pentabromophenyl)methyl acrylate]
- NOEL (short-term, duration: 28 days, gavage, M/F, Clinical Observation: Salivation increase, Hunchback position Staggering gait Lethargy Ptosis Emacation Flush in extremities + Urinalysis: S…): < 15 mg/kg-day

Compound: CC(=O)Nc1ccc(O)cc1 [Acetaminophen]
- NOEL (short-term, duration: 19 days, gavage, F, Wistar, Deaths + Clinical Observation: Emaciation(dead animals) Hypothermia(dead animals) Bradypnea(dead animals) Locomotor activity decrease(dead …): 20 mg/kg-day
- NOEL (short-term, duration: 19 days, gavage, M, Wistar, Deaths + Clinical Observation: Emaciation(dead animals) Hypothermia(dead animals) Bradypnea(dead animals) Locomotor activity decrease(dead …): 20 mg/kg-day
- NOEL (subchronic, duration: 13 weeks, diet, M/F, Fischer 344, Deaths + Clinical Observation: Dark yellow urine + Body Weight Changes: decrease + Absolute Organ Weight: Right testis decrease, Thymus …): < 76.8 mg/kg-day

Compound: C=CCOC(=O)CC(C)C [Allyl isovalerate]
- NOEL (subchronic, duration: 13 weeks, gavage, M/F, Fischer 344, Deaths + Body Weight Changes: decrease + Histopathology: Liver-Basophilic cytoplasmic change Liver-Multifocal coagulative necrosis Liver-…): 31 mg/kg-day

Compound: C=CCOC(=O)C(=C)C [Allyl methacrylate]
- NOAEL (subchronic, gavage, M, Sprague-Dawley, Clinical Observation: Hypersalivation + Body Weight Changes: Weight gain decrease + Absolute Organ Weight: Adrenal decrease, Thymus increase…): 15 mg/kg-day

Compound: O=C1CCCCCCCCCCCN1 [Azacyclotridecan-2-one]
- NOAEL (subchronic, duration: 90 days, gavage, M/F, Sprague-Dawley, Deaths: None (There were dead animals caused by intubation error) + Blood Chemistry: K increase, TP increase, Alb increase + Histopathology…): 25 mg/kg-day

Compound: O=C(Cl)c1ccccc1Cl [Benzoyl chloride, 2-chloro-]
- NOEL (subchronic, duration: 42 days, gavage, M, CD(SD), Clinical Observation: Salivation Soft/mucous stool Soiled perianal/perigenital fur + Body Weight Changes: Weight gain decrease + Food …): 40 mg/kg-day

Compound: c1ccc(COc2ccc3ccccc3c2)cc1 [Benzyl 2-naphthyl ether]
- NOEL (subchronic, gavage, M, Sprague-Dawley, Blood Chemistry: T-Bil increase + Relative Organ Weight: Liver increase + Histopathology: Kidney-Globular accumulation of eosinophilic …): < 100 mg/kg-day

Compound: OCc1ccccc1 [Benzyl alcohol]
- NOEL (subchronic, duration: 13 weeks, gavage, M/F, Fischer 344, Deaths + Clinical Observation: Died Staggering Labored breathing Blood around nose and mouth + Body Weight Changes: decrease + …): 200 mg/kg-day
